Source: patent US9675715B2, “Contrast agent for photoacoustic imaging” (CANON KABUSHIKI KAISHA, priority 2012, dated 2017)
Entries after “also recorded” stand apart in the source; their conditions may differ.

Legend:
[1] = Hydrodynamic average particle size by dynamic light scattering; format: physicochemical; conditions: DLS-8000
Text: In this embodiment, the particle size of the particles may be determined by measuring the hydrodynamic average particle size using the dynamic light scattering (DLS) method with a dynamic light scattering spectrophotometer (DLS-8000, manufactured by Otsuka Electronics Co., Ltd).
The ICG-encapsulating micellar particles refer to micellar particles in which ICG is contained in surfactant micelles by a known emulsification technique.

[2] = tested on: N87 cell line tumor; assay: Amount transferred into tumor mass, fluorescence imaging of N87 tumor-bearing mice; format: in vivo, mouse; conditions: 1 day after administration, fluorescence ROI of tumor site, relative to ROI value of ICG
Method: The tumor-bearing mice were prepared by subcutaneously implanting a human gastric cancer cell line (N87) or a human cervical cancer cell line (HeLa) into nude mice. Then 130 nmol of a contrast agent in terms of the amount of the dye was administered into each of the tumor-bearing mice. […] As a comparative example, fluorescence imaging of the tumor-bearing mice was performed 1 day after the administration. Fluorescence imaging was performed with IVIS (registered trademark) Imaging System to measure fluorescence intensity in a region of interest (ROI) of the tumor site.
The tumor accumulation 1 day after the administration was evaluated by fluorescence. The accumulation in ROI of the tumor site was calculated.

[3] = tested on: sentinel lymph node (mouse popliteal lymph node); assay: Photoacoustic imaging of sentinel lymph node after subcutaneous plantar administration; format: in vivo; conditions: photoacoustic imaging 1 day after subcutaneous administration into plantar surface of nude mouse, 130 nmol dye
Method: (§1) A commercially available photoacoustic imaging apparatus (Nexus128, manufactured by Endra Inc.) was used. Photoacoustic signals were measured at predetermined timings before and after the administration of a prepared contrast agent for PAI, and three-dimensional reconstruction data was acquired for each timing. The photoacoustic signal intensity in a region of interest (ROI) was measured on the basis of the resulting three-dimensional reconstruction data using software (GEHC MICROVIEW, GE Healthcare) or the like.

[4] = tested on: sentinel lymph node (mouse popliteal lymph node); assay: Accumulation in sentinel lymph node, absorbance of lymph node extracts; format: in vivo; conditions: 1 day after administration, 10 nmol dye, accumulation of ICG defined as 1
Method: In examples of the present invention, the transfer of the contrast agent for PAI into a sentinel lymph node (SLN) was evaluated by the use of a mouse popliteal lymph node. Ten microliters of the contrast agent was administered subcutaneously into the plantar surface of a nude mouse.
As a comparative example, mouse popliteal lymph nodes were removed 1 day after the administration of various contrast agents, homogenized, and extracted. The resulting extracts were subjected to absorbance measurement.
Accumulation rates were each calculated on the basis of the following formula: Accumulation rate={(absorbance of removed mouse popliteal lymph node)/(absorbance corresponding to amount of sample administered)}×100
After the calculation of the accumulation, the accumulation ratios of various materials were calculated when the accumulation 1 day after the administration of ICG was defined as 1.
According to “Evaluation example of accumulation in sentinel lymph node”, the accumulation in a sentinel lymph node was evaluated. In this example, 10 nmol of the contrast agent in terms of the amount of the dye was administered to a mouse.

[5] = Accumulation of contrast agent in Colon 26 tumor, dye extraction and fluorescence; format: in vivo; conditions: BALB/c Slc-nu/nu, mouse, intravenous, 13 nmol in terms of ICG
Method: (§2) Tumor model mice were prepared by subcutaneously implanting Colon 26 cells into BALB/c Slc-nu/nu mice.
(§3) Tumor model mice were prepared by subcutaneously implanting Colon 26 cells into BALB/c Slc-nu/nu mice. […] Furthermore, in this example, an aqueous solution of ICG (available from Pharmaceutical and Medical Device Regulatory Science of Japan) was used as a control sample.

[6] = Blood accumulation in Colon 26 tumor model mice; format: in vivo; conditions: BALB/c Slc-nu/nu, mouse, intravenous, 13 nmol in terms of ICG, read-out: Blood accumulation 1 day after administration
Method: as §2, §3

[7] = tested on: tumor site; assay: Photoacoustic signal intensity at tumor site 1 day after administration, relative to ICG; format: in vivo, mouse
Method: as §1

[8] = tested on: cerebral blood vessels; conditions: rat, free ICG administered in blood, NPL 1; cited from earlier work
[9] = known; cited from earlier work

With `CC1(C)C(/C=C/C=C/C=C/C=C2/N(CCCCS(=O)(=O)[O-])c3ccc4ccccc4c3C2(C)C)=[N+](CCCCS(=O)(=O)[O-])c2ccc3ccccc3c21.[Na+]` [ICG, indocyanine green] the “Hydrodynamic average particle size” value [1] was “unmeasurable”, the Relative tumor accumulation [2] was 1.0 and the “Visualization of SLN” value [3] was “substantially no photoacoustic signal was observed; also recorded: unvisualizable”. It also gave a Relative accumulation [4] of 1.0, a Kp at 24 h ([5]; tumor / blood, 1 day after administration, read-out: Ratio of accumulation (tumor/blood)) of 0.5 and a tissue uptake at 24 h ([5]; tumor tissue (Colon 26), Colon 26 tumor, 24 hours, read-out: Tumor accumulation 1 day after administration) of 0.1 %ID/g. For the same compound, the tissue uptake at 1 day [6] was 0.2 %ID/g, the “Relative photoacoustic signal intensity 1 day after administration (signal intensity in administration of ICG = 1.0)” value [7] was 1.0 and the “time after administration at which photoacoustic signal intensity is reduced to a level equal to that of blood” value [8] was “several tens of minutes”. For the same compound, the half-life in blood [9] was “about several minutes”.
